In patent US9902735B2, “Heteroaryl substituted compounds as RORγ inhibitors” (GlaxoSmithKline Intellectual Property Developement Limited, priority 2014, dated 2018):

How the values were obtained:
[1] = biological target: T1, RORγ-LBD (Homo sapiens, UniProt P51449); assay: Fluorescence Energy Transfer (FRET) assay; assay type: biochemical; details: mean of multiple test results if tested more than once; read-out: pIC50 in the FRET assay (converted)
T1 construct: adding an appropriate amount of biotinylated RORγ-LBD and APC-labeled streptavidin
T1 sequence (P51449 269-508 limits assumed): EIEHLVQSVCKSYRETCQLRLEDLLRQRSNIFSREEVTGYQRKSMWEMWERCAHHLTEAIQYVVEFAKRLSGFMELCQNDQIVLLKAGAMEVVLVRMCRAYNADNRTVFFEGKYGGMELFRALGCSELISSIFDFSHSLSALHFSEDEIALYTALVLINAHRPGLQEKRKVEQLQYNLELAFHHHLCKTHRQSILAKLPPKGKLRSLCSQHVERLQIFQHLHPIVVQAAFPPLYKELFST
Description: The assays were performed in an assay buffer consisting of 50 mM NaF, 50 mM 3-(N-morpholino)propanesulfonic acid, pH 7.5, 50 μM 3-[(3-cholamidopropyl)dimethylammonio]-propanesulfonate, 0.1 mg/mL bovine serum albumin, and 10 mM dithiothreitol in 384-well plates (Greiner 784076, Longwood, Fla.). The total volume was 10 μL/well. The europium-labeled SRC1 solution was prepared by adding an appropriate amount of biotinylated SRC and europium labeled streptavidin (PerkinElmer Life and Analytical Sciences, Waltham, Mass.) into assay buffer, with final concentrations of 27 and 3.3 nM, respectively. The allophycocyanin (APC)-labeled-LBD solution was prepared by adding an appropriate amount of biotinylated RORγ-LBD and APC-labeled streptavidin (CR130-100; PerkinElmer Life and Analytical Sciences) at a final concentration of 33 nM each. After 15 min of incubation at room temperature, a 20-fold excess of biotin was added to block the remaining free streptavidin. […] The plates were incubated for 1 h at room temperature and then read on ViewLux (PerkinElmer Life and Analytical Sciences) in LANCE mode configured for europeum-APC labels. Data were collected and analyzed by Activitybase.

[2] = system: human CD4+ T cells; assay: Human peripheral blood CD4+ T cell cultures and cytokine analysis (Th17 polarization); assay type: cell-based; details: secreted IL-17A, 5 days Th17 polarization
Description: Human biological samples were cryopreserved human CD4+ T cells purchased from AllCells, LLC and Stemcell Technologies, Inc. The CD4+ T cells were differentiated to the Th17 subtype by culturing for 5 days in tissue culture plates coated with anti-CD3 antibody (2 μg/mL) in Iscove's modified Dulbecco's medium (IMDM) containing 10% HI-FBS, 55 μM 2-mercaptoethanol and soluble anti-CD28 (3 μg/mL) in the presence of a Th17 skewing cocktail, including IL-1β (10 ng/mL), IL-6 (30 ng/mL), TGFβ (0.5 ng/mL), IL-21 (10 ng/mL), IL-23 (10 ng/mL), anti-IFNγ (10 μg/mL) and anti-IL-4 (10 μg/mL). To examine compound effects on Th17 polarization, freshly thawed CD4+ cells in IMDM supplemented with all Th17 polarization cocktail constituents (above) were seeded at low cell density (20,000 cells/well) directly into anti-CD3 coated round bottom 96-well plates already containing serially diluted compounds. Cells were incubated undisturbed for 5 days at 37° C. Immediately following culture, supernatant was analyzed for secreted IL-17A and IL-22 protein by MSD electrochemiluminescent cytokine assays (Mesoscale Discovery) and ELISA (Quantikine assay, R&D Systems), respectively. Compound treatment(s) were performed in triplicate. Results are presented as the mean±SD or as mean percent inhibition (±SD) relative to the response to stimulus alone.

- IC50 [1]: ~50.1 nM
- IC50 ([2]; Homo sapiens, CD4+ T, 120 h, read-out: IL17A pIC50 (converted)): 28.8 nM
Structure (SMILES): Cc1ncc(C(=O)Nc2cc(Cl)cc(CN3CCN(C(=O)CC4CC4)[C@@H](C)C3)c2C)cc1F [Example 80, (S)—N-(5-chloro-3-((4-(2-cyclopropylacetyl)-3-methylpiperazin-1-yl)methyl)-2-methylphenyl)-5-fluoro-6-methylnicotinamide]
- Inhibition Activity (ASSYM MAX) [2]: 94
